# Results taken from PubChem BioAssay (NCI).
#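 GI50 is the concentration that inhibits growth by half. The concentration for full growth arrest is given as TGI.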
# How the values were obtained:
# Assay in all cases: DTP human tumour cell line panel, 384-well format
# OVCAR-5 ovarian = tested on: OVCAR-5 ovarian
# RPMI-8226 leukemia = tested on: RPMI-8226 leukemia
# UACC-62 melanoma = tested on: UACC-62 melanoma
# SK-MEL-28 melanoma = tested on: SK-MEL-28 melanoma
# 786-0 renal = tested on: 786-0 renal
# MDA-MB-468 breast = tested on: MDA-MB-468 breast
# HT29 colon = tested on: HT29 colon
# ACHN renal = tested on: ACHN renal
# SK-MEL-2 melanoma = tested on: SK-MEL-2 melanoma
# A549 NSCLC = tested on: A549 NSCLC
# OVCAR-4 ovarian = tested on: OVCAR-4 ovarian
# NCI/ADR-RES ovarian = tested on: NCI/ADR-RES ovarian
# SN12C renal = tested on: SN12C renal
# SK-OV-3 ovarian = tested on: SK-OV-3 ovarian
# HCC-2998 colon = tested on: HCC-2998 colon
# OVCAR-8 ovarian = tested on: OVCAR-8 ovarian
# PC-3 prostate = tested on: PC-3 prostate
# OVCAR-3 ovarian = tested on: OVCAR-3 ovarian
# LOX IMVI melanoma = tested on: LOX IMVI melanoma
# TK-10 renal = tested on: TK-10 renal
# KM12 colon = tested on: KM12 colon
# SW-620 colon = tested on: SW-620 colon
# SNB-19 CNS = tested on: SNB-19 CNS
# HOP-92 NSCLC = tested on: HOP-92 NSCLC
# HL-60(TB) leukemia = tested on: HL-60(TB) leukemia
# NCI-H23 lung = tested on: NCI-H23 lung
# CAKI-1 renal = tested on: CAKI-1 renal
# T-47D breast = tested on: T-47D breast
# MCF7 breast = tested on: MCF7 breast
# IGROV1 ovarian = tested on: IGROV1 ovarian
# SR leukemia = tested on: SR leukemia
# SNB-75 CNS = tested on: SNB-75 CNS
# HS 578T breast = tested on: HS 578T breast
# NCI-H522 lung = tested on: NCI-H522 lung
# HCT-116 colon = tested on: HCT-116 colon
# EKVX NSCLC = tested on: EKVX NSCLC
# BT-549 breast = tested on: BT-549 breast
# MDA-MB-231 breast = tested on: MDA-MB-231 breast
# SF-268 CNS = tested on: SF-268 CNS
# UACC-257 melanoma = tested on: UACC-257 melanoma
# HCT-15 colon = tested on: HCT-15 colon
# CCRF-CEM leukemia = tested on: CCRF-CEM leukemia
# M14 melanoma = tested on: M14 melanoma
# SK-MEL-5 melanoma = tested on: SK-MEL-5 melanoma
# MALME-3M melanoma = tested on: MALME-3M melanoma
# MOLT-4 leukemia = tested on: MOLT-4 leukemia
# NCI-H460 NSCLC = tested on: NCI-H460 NSCLC
structure (smiles),measurement,setting,value
CC(=O)N1CCC(Nc2cc(C(=O)NC[C@H](O)CN3CCc4ccccc4C3)ncn2)CC1,GI50,OVCAR-5 ovarian,> 100 µM
same,TGI,OVCAR-5 ovarian,> 100 µM
same,GI50,RPMI-8226 leukemia,61.6 µM
same,TGI,RPMI-8226 leukemia,> 100 µM
same,GI50,UACC-62 melanoma,> 100 µM
same,TGI,UACC-62 melanoma,> 100 µM
same,GI50,SK-MEL-28 melanoma,> 100 µM
same,TGI,SK-MEL-28 melanoma,> 100 µM
same,GI50,786-0 renal,> 100 µM
same,TGI,786-0 renal,> 100 µM
same,GI50,MDA-MB-468 breast,29.5 µM
same,TGI,MDA-MB-468 breast,> 100 µM
same,GI50,HT29 colon,> 100 µM
same,TGI,HT29 colon,> 100 µM
same,GI50,ACHN renal,> 100 µM
same,TGI,ACHN renal,> 100 µM
same,GI50,SK-MEL-2 melanoma,> 100 µM
same,TGI,SK-MEL-2 melanoma,> 100 µM
same,GI50,A549 NSCLC,> 100 µM
same,TGI,A549 NSCLC,> 100 µM
same,GI50,OVCAR-4 ovarian,4.44 µM
same,TGI,OVCAR-4 ovarian,> 100 µM
same,GI50,NCI/ADR-RES ovarian,> 100 µM
same,TGI,NCI/ADR-RES ovarian,> 100 µM
same,GI50,SN12C renal,> 100 µM
same,TGI,SN12C renal,> 100 µM
same,GI50,SK-OV-3 ovarian,> 100 µM
same,TGI,SK-OV-3 ovarian,> 100 µM
same,GI50,HCC-2998 colon,> 100 µM
same,TGI,HCC-2998 colon,> 100 µM
same,GI50,OVCAR-8 ovarian,> 100 µM
same,TGI,OVCAR-8 ovarian,> 100 µM
same,GI50,PC-3 prostate,> 100 µM
same,TGI,PC-3 prostate,> 100 µM
same,GI50,OVCAR-3 ovarian,> 100 µM
same,TGI,OVCAR-3 ovarian,> 100 µM
same,GI50,LOX IMVI melanoma,> 100 µM
same,TGI,LOX IMVI melanoma,> 100 µM
same,GI50,TK-10 renal,> 100 µM
same,TGI,TK-10 renal,> 100 µM
same,GI50,KM12 colon,> 100 µM
same,TGI,KM12 colon,> 100 µM
same,GI50,SW-620 colon,> 35.6 µM
same,TGI,SW-620 colon,> 100 µM
same,GI50,SNB-19 CNS,> 100 µM
same,TGI,SNB-19 CNS,> 100 µM
same,GI50,HOP-92 NSCLC,> 28.1 µM
same,TGI,HOP-92 NSCLC,> 100 µM
same,GI50,HL-60(TB) leukemia,> 100 µM
same,TGI,HL-60(TB) leukemia,> 100 µM
same,GI50,NCI-H23 lung,> 100 µM
same,TGI,NCI-H23 lung,> 100 µM
same,GI50,CAKI-1 renal,> 100 µM
same,TGI,CAKI-1 renal,> 100 µM
same,GI50,T-47D breast,658 nM
same,TGI,T-47D breast,> 100 µM
same,GI50,MCF7 breast,> 36.8 µM
same,TGI,MCF7 breast,> 100 µM
same,GI50,IGROV1 ovarian,> 100 µM
same,TGI,IGROV1 ovarian,> 100 µM
same,GI50,SR leukemia,183 nM
same,TGI,SR leukemia,> 100 µM
same,GI50,SNB-75 CNS,> 100 µM
same,TGI,SNB-75 CNS,> 100 µM
same,GI50,HS 578T breast,> 100 µM
same,TGI,HS 578T breast,> 100 µM
same,GI50,NCI-H522 lung,> 100 µM
same,TGI,NCI-H522 lung,> 100 µM
same,GI50,HCT-116 colon,> 100 µM
same,TGI,HCT-116 colon,> 100 µM
same,GI50,EKVX NSCLC,> 100 µM
same,TGI,EKVX NSCLC,> 100 µM
same,GI50,BT-549 breast,> 100 µM
same,TGI,BT-549 breast,> 100 µM
same,GI50,MDA-MB-231 breast,> 100 µM
same,TGI,MDA-MB-231 breast,> 100 µM
same,GI50,SF-268 CNS,> 100 µM
same,TGI,SF-268 CNS,> 100 µM
same,GI50,UACC-257 melanoma,> 100 µM
same,TGI,UACC-257 melanoma,> 100 µM
same,GI50,HCT-15 colon,> 100 µM
same,TGI,HCT-15 colon,> 100 µM
same,GI50,CCRF-CEM leukemia,> 100 µM
same,TGI,CCRF-CEM leukemia,> 100 µM
same,GI50,M14 melanoma,> 100 µM
same,TGI,M14 melanoma,> 100 µM
same,GI50,SK-MEL-5 melanoma,> 100 µM
same,TGI,SK-MEL-5 melanoma,> 100 µM
same,GI50,MALME-3M melanoma,> 100 µM
same,TGI,MALME-3M melanoma,> 100 µM
same,GI50,MOLT-4 leukemia,< 13.8 nM
same,TGI,MOLT-4 leukemia,85.4 nM
same,GI50,NCI-H460 NSCLC,1900 nM
same,TGI,NCI-H460 NSCLC,> 100 µM
